This passage reports TGI results from PubChem BioAssay (NCI).

Among the test systems are BT-549 breast; CAKI-1 renal; COLO 205 colon; DU-145 prostate; HCT-15 colon; HOP-62 NSCLC; HT29 colon; K-562 leukemia; LOX IMVI melanoma; MDA-MB-435; MOLT-4 leukemia; NCI-H522 lung; OVCAR-3 ovarian; OVCAR-8 ovarian; SK-MEL-5 melanoma; SN12C renal; SW-620 colon; TK-10 renal; UACC-62 melanoma; UO-31 renal.
Test in all cases: NCI-60 cell line screen, 48 h

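Five compound concentrations were applied to cells in 96-well plates for 48 hours; endpoints were derived by simple linear interpolation of the resulting dose-response curve. Definition used: TGI = concentration required for complete inhibition of growth.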

With `COC(=O)C1=C(OC(=O)/C=C/c2ccc(Cl)cc2)C(C(=O)OC)[C@@]2(O)[C@@H](C(=O)OC)[C@H](C)C[C@@H]1[C@@H]2C(=O)OC` (stereo not given in full), the TGI in the test with BT-549 breast was 53.7 µM; in the test on CAKI-1 renal, 87.3 µM; in the test with COLO 205 colon, 40.7 µM; in the test on DU-145 prostate it was over 100 µM; in the test with HCT-15 colon, 57 µM; in the test on HOP-62 NSCLC, over 100 µM. For the same molecule, the TGI in the test with HT29 colon was 65.8 µM; in the test on K-562 leukemia, over 100 µM; with LOX IMVI melanoma, 37.7 µM; in the test on MDA-MB-435 it was over 100 µM; in the test on MOLT-4 leukemia, 96.4 µM; in the test with NCI-H522 lung it was 23.1 µM. Besides, the TGI was over 100 µM in the test on OVCAR-3 ovarian; 41.6 µM with OVCAR-8 ovarian; 32.2 µM with SK-MEL-5 melanoma; 45.7 µM in the test on SN12C renal; over 100 µM in the test on SW-620 colon; over 100 µM in the test on TK-10 renal. Moreover, the TGI in the test with UACC-62 melanoma worked out at 54.1 µM; with UO-31 renal it was 57.1 µM.
